{
  "source": "patent US5179088A",
  "about": "“1-Carba(dethia)cephalosporin antibiotics” (Eli Lilly and Company, priority 1990, dated 1993)",
  "type_in_all_cases": "cell-based",
  "set-up_in_all_cases": "unit not given here",
  "key": {"Enterbacter Aerogenes": {"test_system": "Enterbacter Aerogenes", "assay": "in vitro antibacterial activity, agar dilution (Enterobacter aerogenes)", "method": "(§1) *minimum inhibitory concentrations were determined by the Agardilution"}, "Proteus morg": {"test_system": "Proteus morg", "assay": "in vitro antibacterial activity, agar dilution (Proteus morg)", "conditions": "strain PR15", "method": "as §1"}, "Citro": {"test_system": "Citro", "assay": "in vitro antibacterial activity, agar dilution (Citro)", "conditions": "strain CF17", "method": "as §1"}, "Pseudomonas": {"test_system": "Pseudomonas", "assay": "in vitro antibacterial activity, agar dilution (Pseudomonas)", "method": "as §1"}, "Proteus rett": {"test_system": "Proteus rett", "assay": "in vitro antibacterial activity, agar dilution (Proteus rett)", "conditions": "strain C24", "method": "as §1"}, "Streptococcus pn": {"test_system": "Streptococcus pn", "assay": "in vitro antibacterial activity, agar dilution (Streptococcus pn)", "conditions": "strain PARK", "method": "as §1"}, "Proteus incon": {"test_system": "Proteus incon", "assay": "in vitro antibacterial activity, agar dilution (Proteus incon)", "conditions": "strain PR33", "method": "as §1"}, "Streptococcus A": {"test_system": "Streptococcus A", "assay": "in vitro antibacterial activity, agar dilution (Streptococcus A)", "conditions": "strain C203", "method": "as §1"}, "H. Influ.": {"test_system": "H. Influ.", "assay": "in vitro antibacterial activity, agar dilution (H. influ.)", "method": "as §1"}, "Enterbacter Cloacea": {"test_system": "Enterbacter Cloacea", "assay": "in vitro antibacterial activity, agar dilution (Enterobacter cloacae)", "method": "as §1"}, "E. coli": {"test_system": "E. coli", "assay": "in vitro antibacterial activity, agar dilution (E. coli)", "method": "as §1"}, "Acin": {"test_system": "Acin", "assay": "in vitro antibacterial activity, agar dilution (Acin)", "conditions": "strain AC12", "method": "as §1"}, "Staphylococcus Aureus": {"test_system": "Staphylococcus Aureus", "assay": "in vitro antibacterial activity, agar dilution (Staphylococcus aureus)", "method": "as §1"}, "Shig. sonn": {"test_system": "Shig. sonn", "assay": "in vitro antibacterial activity, agar dilution (Shig. sonn)", "conditions": "strain N9", "method": "as §1"}, "Staphylococcus Epi": {"test_system": "Staphylococcus Epi", "assay": "in vitro antibacterial activity, agar dilution (Staphylococcus epi)", "method": "as §1"}, "Klebsiella": {"test_system": "Klebsiella", "assay": "in vitro antibacterial activity, agar dilution (Klebsiella)", "method": "as §1"}, "Salmonella": {"test_system": "Salmonella", "assay": "in vitro antibacterial activity, agar dilution (Salmonella)", "method": "as §1"}, "Serratia": {"test_system": "Serratia", "assay": "in vitro antibacterial activity, agar dilution (Serratia)", "method": "as §1"}, "Streptococcus D": {"test_system": "Streptococcus D", "assay": "in vitro antibacterial activity, agar dilution (Streptococcus D)", "method": "as §1"}},
  "data": [
    {"smiles": "CO/N=C(\\C(=O)N[C@@H]1C(=O)N2C(C(=O)O)=C(c3csc(-c4ccccc4)n3)CC[C@H]12)c1csc(N)n1", "note": "[Example 31, Sodium 7β-[(2-aminothiazol-4-yl)-Z-methoximinoacetylamino]-1-carba-(1-dethia)-3-[2-(2-phenyl)thiazol-4-yl]-3-cephem-4-carboxylate]", "values": [
      {"measurement": "minimum inhibitory concentration", "setting": "Enterbacter Aerogenes; strain C32", "result": 1},
      {"measurement": "minimum inhibitory concentration", "setting": "Enterbacter Aerogenes; strain EB17", "result": 1},
      {"measurement": "minimum inhibitory concentration", "setting": "Proteus morg", "result": 2},
      {"measurement": "minimum inhibitory concentration", "setting": "Citro", "result": 4},
      {"measurement": "minimum inhibitory concentration", "setting": "Pseudomonas; strain PS18", "result": "> 128"},
      {"measurement": "minimum inhibitory concentration", "setting": "Pseudomonas; strain PS72", "result": "> 128"},
      {"measurement": "minimum inhibitory concentration", "setting": "Pseudomonas; strain X239", "result": "> 128"},
      {"measurement": "minimum inhibitory concentration", "setting": "Pseudomonas; strain X528", "result": "> 128"},
      {"measurement": "minimum inhibitory concentration", "setting": "Proteus rett", "result": ".25"},
      {"measurement": "minimum inhibitory concentration", "setting": "Streptococcus pn", "result": "< .008"},
      {"measurement": "minimum inhibitory concentration", "setting": "Proteus incon", "result": ".5"},
      {"measurement": "minimum inhibitory concentration", "setting": "Streptococcus A", "result": "< .008"},
      {"measurement": "minimum inhibitory concentration", "setting": "H. Influ.; res, strain 76", "result": ".03"},
      {"measurement": "minimum inhibitory concentration", "setting": "H. Influ.; sens, strain C.L.", "result": ".06"},
      {"measurement": "minimum inhibitory concentration", "setting": "Enterbacter Cloacea; strain 265A", "result": 64},
      {"measurement": "minimum inhibitory concentration", "setting": "Enterbacter Cloacea; strain EB5", "result": 1},
      {"measurement": "minimum inhibitory concentration", "setting": "E. coli; strain EC14", "result": 1},
      {"measurement": "minimum inhibitory concentration", "setting": "E. coli; strain N10", "result": 2},
      {"measurement": "minimum inhibitory concentration", "setting": "E. coli; strain TEM", "result": 1},
      {"measurement": "minimum inhibitory concentration", "setting": "Acin", "result": 128},
      {"measurement": "minimum inhibitory concentration", "setting": "Staphylococcus Aureus; strain S13E", "result": 128},
      {"measurement": "minimum inhibitory concentration", "setting": "Staphylococcus Aureus; strain V41", "result": 2},
      {"measurement": "minimum inhibitory concentration", "setting": "Staphylococcus Aureus; strain X1.1", "result": 1},
      {"measurement": "minimum inhibitory concentration", "setting": "Staphylococcus Aureus; strain X400", "result": "> 128"},
      {"measurement": "minimum inhibitory concentration", "setting": "Shig. sonn", "result": 1},
      {"measurement": "minimum inhibitory concentration", "setting": "Staphylococcus Epi; strain 222", "result": 2},
      {"measurement": "minimum inhibitory concentration", "setting": "Staphylococcus Epi; strain 270", "result": 8},
      {"measurement": "minimum inhibitory concentration", "setting": "Klebsiella; strain KAE", "result": 1},
      {"measurement": "minimum inhibitory concentration", "setting": "Klebsiella; strain X26", "result": ".015"},
      {"measurement": "minimum inhibitory concentration", "setting": "Klebsiella; strain X68", "result": 1},
      {"measurement": "minimum inhibitory concentration", "setting": "Salmonella; strain 1335", "result": 4},
      {"measurement": "minimum inhibitory concentration", "setting": "Salmonella; strain X514", "result": 2},
      {"measurement": "minimum inhibitory concentration", "setting": "Serratia; strain SE3", "result": 8},
      {"measurement": "minimum inhibitory concentration", "setting": "Serratia; strain X99", "result": 4},
      {"measurement": "minimum inhibitory concentration", "setting": "Streptococcus D; strain 2041", "result": 4},
      {"measurement": "minimum inhibitory concentration", "setting": "Streptococcus D; strain X66", "result": "> 128"}
    ]},
    {"smiles": "CO/N=C(\\C(=O)N[C@@H]1C(=O)N2C(C(=O)O)=C(c3csc(-c4ncc([N+](=O)[O-])s4)n3)CC[C@H]12)c1csc(N)n1", "note": "[Example 36]", "values": [
      {"measurement": "minimum inhibitory concentration", "setting": "Enterbacter Aerogenes; strain C32", "result": ".125"},
      {"measurement": "minimum inhibitory concentration", "setting": "Enterbacter Aerogenes; strain EB17", "result": ".25"},
      {"measurement": "minimum inhibitory concentration", "setting": "Proteus morg", "result": ".25"},
      {"measurement": "minimum inhibitory concentration", "setting": "Citro", "result": ".06"},
      {"measurement": "minimum inhibitory concentration", "setting": "Pseudomonas; strain PS18", "result": "> 128"},
      {"measurement": "minimum inhibitory concentration", "setting": "Pseudomonas; strain PS72", "result": "> 128"},
      {"measurement": "minimum inhibitory concentration", "setting": "Pseudomonas; strain X239", "result": 32},
      {"measurement": "minimum inhibitory concentration", "setting": "Pseudomonas; strain X528", "result": 32},
      {"measurement": "minimum inhibitory concentration", "setting": "Proteus rett", "result": ".06"},
      {"measurement": "minimum inhibitory concentration", "setting": "Streptococcus pn", "result": "< .008"},
      {"measurement": "minimum inhibitory concentration", "setting": "Proteus incon", "result": ".25"},
      {"measurement": "minimum inhibitory concentration", "setting": "Streptococcus A", "result": ".015"},
      {"measurement": "minimum inhibitory concentration", "setting": "H. Influ.; res, strain 76", "result": "< .008"},
      {"measurement": "minimum inhibitory concentration", "setting": "H. Influ.; sens, strain C.L.", "result": ".015"},
      {"measurement": "minimum inhibitory concentration", "setting": "Enterbacter Cloacea; strain 265A", "result": ".5"},
      {"measurement": "minimum inhibitory concentration", "setting": "Enterbacter Cloacea; strain EB5", "result": 1},
      {"measurement": "minimum inhibitory concentration", "setting": "E. coli; strain N10", "result": ".25"},
      {"measurement": "minimum inhibitory concentration", "setting": "E. coli; strain TEM", "result": ".25"},
      {"measurement": "minimum inhibitory concentration", "setting": "Acin", "result": 32},
      {"measurement": "minimum inhibitory concentration", "setting": "Staphylococcus Aureus; strain S13E", "result": 32},
      {"measurement": "minimum inhibitory concentration", "setting": "Staphylococcus Aureus; strain V41", "result": 2},
      {"measurement": "minimum inhibitory concentration", "setting": "Staphylococcus Aureus; strain X1.1", "result": ".25"},
      {"measurement": "minimum inhibitory concentration", "setting": "Staphylococcus Aureus; strain X400", "result": 16},
      {"measurement": "minimum inhibitory concentration", "setting": "Shig. sonn", "result": ".25"},
      {"measurement": "minimum inhibitory concentration", "setting": "Staphylococcus Epi; strain 222", "result": 2},
      {"measurement": "minimum inhibitory concentration", "setting": "Staphylococcus Epi; strain 270", "result": 1},
      {"measurement": "minimum inhibitory concentration", "setting": "Klebsiella; strain KAE", "result": ".5"},
      {"measurement": "minimum inhibitory concentration", "setting": "Klebsiella; strain X26", "result": "< .008"},
      {"measurement": "minimum inhibitory concentration", "setting": "Klebsiella; strain X68", "result": ".25"},
      {"measurement": "minimum inhibitory concentration", "setting": "Salmonella; strain 1335", "result": ".5"},
      {"measurement": "minimum inhibitory concentration", "setting": "Salmonella; strain X514", "result": ".25"},
      {"measurement": "minimum inhibitory concentration", "setting": "Serratia; strain SE3", "result": 4},
      {"measurement": "minimum inhibitory concentration", "setting": "Serratia; strain X99", "result": 1},
      {"measurement": "minimum inhibitory concentration", "setting": "Streptococcus D; strain 2041", "result": 4},
      {"measurement": "minimum inhibitory concentration", "setting": "Streptococcus D; strain X66", "result": 64}
    ]}
  ]
}
